Reference: US20180042851A1, “SOLID DISPERSIONS” (FMC Corporation, priority 2015, published 2018)
Where two headings read alike, the source gives them in different places.

Protocol: In vitro dissolution studies of the lovastatin:alginate solid dispersions produced above were carried out using the paddle method equipped with a USP II apparatus at 37.5±0.5° C. and a paddle speed of 50 rpm. The appropriate amount of lovastatin solid dispersion (containing 60 mg lovastatin) was added into 900 mL dissolution medium (0.05M pH6.8 phosphate buffer with 0.1% SDS as non-sink condition). Samples (6 mL) were collected at predetermined time intervals and immediately filtered through a 0.15 μm syringe filter, the first 2 mL of filtrate was discarded and the remaining filtrate was collected for analysis at 237 nm using a UV spectrophotometer (UV-2000, UNIC Instrument Corp., Shanghai, China). Meanwhile, an equal volume of fresh dissolution medium was added.

- Cumulative Release (%) (0 minutes, 60 mg lovastatin in 900 mL pH6.8 phosphate buffer with 0.1% SDS, 37.5° C., 50 rpm): 0%
- Cumulative Release (%) (5 minutes, pH6.8 phosphate buffer with 0.1% SDS, non-sink): 13.52%
- Cumulative Release (%) (10 minutes, pH6.8 phosphate buffer with 0.1% SDS, non-sink): 18.29%
- Cumulative Release (%) (15 minutes, pH6.8 phosphate buffer with 0.1% SDS, non-sink): 22.81%
- Cumulative Release (%) (30 minutes, pH6.8 phosphate buffer with 0.1% SDS, non-sink): 29.77%
Compound: CC[C@H](C)C(=O)O[C@H]1C[C@@H](C)C=C2C=C[C@H](C)[C@H](CC[C@@H]3C[C@@H](O)CC(=O)O3)[C@H]21 [Drug Alone, lovastatin]
